Values of other authors in patent US8986529B2, “Isotachophoresis having interacting anionic and cationic shock waves” (The Board of Trustees of the Leland Stanford Junior …, priority 2010, dated 2015).
Like-named read-outs stand apart in the source and are kept apart here.

Experiments:
[1] = for pKa: text b64: pKa,TE− of Tricine, pKa,LE+ of Imidazole, pKa,TE+ of Arginine
[2] = Table 1, fully-ionized (absolute) mobility of the +1 cation, cationic LE+/TE+ candidates for focusing to separation mode
[3] = Table 2, absolute mobility of the cation, cationic LE+/TE+ candidates for bidirectional cascade ITP
[4] = Table 2, acid dissociation constant of the cation, bidirectional cascade ITP buffers
[5] = Table 1, cationic LE+/TE+ candidates for focusing to separation mode

Row | pKa,+1 [1, 5] | Compound | μ+1 [2] | μ+1 [3] | pKa,+1 [1, 4] | pKa [1]
1 | – | Cc1ccccn1 [2-methyl pyridine] | 40.1 ×10^−9 m^2V^−1s^−1 | 40.1 ×10^−9 m^2V^−1s^−1 | 6.2 | –
2 | 5.5 | Cc1cccnc1 [3-methyl pyridine] | 40.1 ×10^−9 m^2V^−1s^−1 | – | – | –
3 | – | Cc1ccncc1 [4-methyl pyridine] | – | 40.1 ×10^−9 m^2V^−1s^−1 | – | –
4 | – | CC(N)(CO)CO [Amediol] | 33.5 ×10^−9 m^2V^−1s^−1 | – | – | –
5 | – | OCCN(CCO)C(CO)(CO)CO [Bistris] | – | 26 ×10^−9 m^2V^−1s^−1 | – | –
6 | 7.15 | c1c[nH]cn1 [Imidazole] | 52 ×10^−9 m^2V^−1s^−1 | 52 ×10^−9 m^2V^−1s^−1 | 7.15 | 7.15
7 | – | c1ccncc1 [Pyridine] | – | 30 ×10^−9 m^2V^−1s^−1 | – | –
8 | – | NC(CO)(CO)CO [Tris] | 29.5 ×10^−9 m^2V^−1s^−1 | 29.5 ×10^−9 m^2V^−1s^−1 | – | –

Row | Compound | pKa,+1 [1, 5] | μ+1 [2] | μ+1 [3] | pKa,+1 [1, 4] | pKa [1]
9 | N=C(N)NCCC[C@H](N)C(=O)O [Arginine] | 8.92 | 26.9 ×10^−9 m^2V^−1s^−1 | – | – | 8.92
